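Cells were grown in 96-well plates and exposed to each compound for 48 hours at five concentrations; endpoints were interpolated linearly between bracketing concentrations, or set to the highest concentration if not reached. GI50 is the concentration that inhibits growth by half.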 Calls of active or inactive are those of the source. Cut-off read from the data, not from the text of the source: active = GI50 up to about 1.1 µM and inactive = higher.
Experiments:
Assay in all cases: growth of human tumour cells (NCI), 48 h
[1] = tested on: A549
[2] = tested on: CCRF-CEM
[3] = tested on: HOP-62
[4] = tested on: HT-29
[5] = tested on: Hs-578T
[6] = tested on: MDA-MB-435
[7] = tested on: MOLT-4
[8] = tested on: Malme-3M
[9] = tested on: NCI-H226
[10] = tested on: NCI-H23
[11] = tested on: OVCAR-3
[12] = tested on: OVCAR-4
[13] = tested on: PC-3
[14] = tested on: SF-295
[15] = tested on: SK-MEL-28
[16] = tested on: SNB-19
[17] = tested on: SR
[18] = tested on: T47D
[19] = tested on: TK-10
[20] = tested on: U-251

Measured: GI50

COc1ccc2nc3ccc(OC)cc3c([S+]([O-])Cc3ccccc3)c2c1 (stereo not given)
inactive: [1] 19.1 µM | [2] 2.65 µM | [3] 18 µM | [4] 3.05 µM | [5] 8.22 µM | [6] 12.8 µM | [7] 2.79 µM | [8] 2.42 µM | [9] 19.4 µM | [10] 8.81 µM | [11] 13.1 µM | [12] 14.9 µM | [13] 14.2 µM | [14] 17.8 µM | [15] 9.33 µM | [16] 18 µM | [17] 3.04 µM | [18] 2.11 µM | [19] 7.71 µM | [20] 20.5 µM

O=c1[nH]c(=O)n(C2CC(O)C(CO)O2)cc1I (stereo not given)
inactive: [1] > 73.1 µM | [2] 17.5 µM | [3] > 100 µM | [4] > 100 µM | [5] > 100 µM | [6] > 100 µM | [7] 75.7 µM | [8] > 100 µM | [9] > 100 µM | [10] > 100 µM | [11] > 100 µM | [12] > 100 µM | [13] > 100 µM | [14] > 100 µM | [15] > 100 µM | [16] > 100 µM | [17] 38.7 µM | [18] > 100 µM | [19] > 100 µM | [20] > 100 µM

Cc1nc2nn[nH]n2c(=O)c1CCO
inactive: [1] > 100 µM | [2] > 100 µM | [3] > 100 µM | [4] > 100 µM | [5] > 100 µM | [6] > 100 µM | [7] > 100 µM | [8] > 100 µM | [9] > 100 µM | [10] > 100 µM | [11] > 100 µM | [12] > 100 µM | [13] > 100 µM | [14] > 100 µM | [15] > 100 µM | [16] > 100 µM | [17] > 100 µM | [18] > 100 µM | [19] > 100 µM | [20] > 100 µM

COc1cccc(NC(=O)CC(=O)N2N=C(C)C(/N=N\c3ccc(S(=O)(=O)c4ccc(/N=N/C5C(=O)N(C(=O)CC(=O)Nc6cccc(OC)c6)N=C5C)cc4)cc3)C2=O)c1 (stereo not given)
inactive: [1] > 100 µM | [2] > 100 µM | [3] > 100 µM | [4] > 100 µM | [5] > 100 µM | [6] > 100 µM | [7] > 100 µM | [8] 58.9 µM | [9] > 100 µM | [10] > 100 µM | [11] > 100 µM | [12] > 100 µM | [13] > 100 µM | [14] > 100 µM | [15] > 100 µM | [16] > 100 µM | [17] > 100 µM | [18] > 100 µM | [19] > 100 µM | [20] > 100 µM

N=C(N)Nc1nc2cc([N+](=O)[O-])ccc2[nH]1
inactive: [1] > 100 µM | [2] > 100 µM | [3] > 100 µM | [4] > 100 µM | [5] > 100 µM | [6] > 100 µM | [7] > 100 µM | [8] > 100 µM | [9] > 100 µM | [10] 68.7 µM | [11] 99.3 µM | [12] > 100 µM | [13] 81.1 µM | [14] 66.2 µM | [15] > 100 µM | [16] > 100 µM | [17] > 100 µM | [18] 69.2 µM | [19] 81.8 µM | [20] 91.4 µM

— ChEMBL document CHEMBL1201862, “PubChem BioAssay data set” (2004)
